Measured values published in US11147802B2, “Substituted oxadiazole chemical compound and composition containing said chemical compound and use thereof” (Shenzhen TargetRx, Inc., priority 2016, dated 2021).

Legend:
[1] = Metabolic stability in human liver microsomes; format: in vitro ADME; settings: pH 7.4, 1 μM compound, 0.5 mg/mL protein, 37° C.; for half-life at 1 μM: read-out: Human liver microsomes t1/2
Procedure: (§1) Metabolic Stability Evaluation
(§2) Experiments in microsomes: Human liver microsomes: 0.5 mg/mL, Xenotech; Rat liver microsomes: 0.5 mg/mL, Xenotech; Coenzyme (NADPH/NADH): 1 mM, Sigma Life Science; Magnesium chloride: 5 mM, 100 mM phosphate buffer (pH 7.4).
(§3) Preparation of stock solution: Powder of the example compound was accurately weighed and dissolved in DMSO to 5 mM.
(§4) Preparation of phosphate buffer (100 mM, pH7.4): A pre-formulated 0.5M potassium dihydrogen phosphate (150 mL) was mixed with 0.5M dibasic potassium phosphate (700 mL). The pH of the mixture was adjusted to 7.4 with 0.5M dibasic potassium phosphate solution. The mixture was diluted 5-fold with ultrapure water before use, and magnesium chloride was added to obtain a phosphate buffer (100 mM) containing 100 mM potassium phosphate, 3.3 mM magnesium chloride, pH 7.4.
(§5) A NADPH regeneration system solution (containing 6.5 mM NADP, 16.5 mM G-6-P, 3 U/mL G-6-PD, 3.3 mM magnesium chloride) was prepared and placed on wet ice prior to use.
(§6) Preparation of stop solution: acetonitrile solution containing 50 ng/mL propranolol hydrochloride and 200 ng/mL tolbutamide (internal standard). 25057.5 μL of phosphate buffer (pH 7.4) was taken into a 50 mL centrifuge tube, to which 812.5 μL human liver microsomes were added, and mixed to obtain a liver microsome dilution solution with a protein concentration of 0.625 mg/mL. 25057.5 μL of phosphate buffer (pH 7.4) was taken into a 50 mL centrifuge tube, to which 812.5 μL SD rat liver microsomes were added, and mixed to obtain a liver microsome dilution solution with a protein concentration of 0.625 mg/mL.
(§7) Incubation of the samples: The stock solution of the respective compound was respectively diluted to 0.25 mM with an aqueous solution containing 70% acetonitrile, and used as a working solution, ready for use. 398 μL of the dilution solution of human liver microsomes or rat liver microsome were added to a 96-well incubation plate (N=2), respectively, and 2 μL of 0.25 mM working solution was added and mixed.
(§8) Metabolic stability assay: 300 μL of pre-chilled stop solution was added to each well of a 96-well deep well plate and placed on ice as a stop plate. The 96 well incubation plate and NADPH regeneration system were placed in a 37° C. water bath box, shaken at 100 rpm and pre-incubated for 5 min. 80 μL of incubation solution was taken out from each well of the incubation plate and added to the stop plate, mixed, and replenished with 20 μL of NADPH regeneration system solution as a 0-min sample. 80 μL of NADPH regeneration system solution was added to each well of the incubation plate to start the reaction and start counting. […] Separately, 100 μL of the reaction solution was taken at 10, 30, and 90 min reaction, respectively, added to a stop plate, and vortexed for 3 minutes to terminate the reaction. The stop plate was centrifuged at 5000×g at 4° C. for 4 min. 100 μL of the supernatant was added to a 96-well plate to which 100 μL of distilled water was previously added, mixed, and analyzed by LC-MS/MS.
(§9) Data analysis: The peak areas of the corresponding compound and internal standard were detected by LC-MS/MS system, and the ratio of the peak area of the compound to the internal standard was calculated.

[2] = Metabolic stability in rat liver microsomes; format: in vitro ADME; settings: Sprague-Dawley (SD), pH 7.4, 1 μM compound, 0.5 mg/mL protein, 37° C.; for half-life at 1 μM: read-out: Rat liver microsomes t1/2
Procedure: as §1, §2, §3, §4, §5, §6, §7, §8, §9

microsomal CLint at 1 μM [1] [µL/min/mg]	half-life at 1 μM [1] [min]	microsomal CLint at 1 μM [2] [µL/min/mg]	half-life at 1 μM [2] [min]	Structure (SMILES)
< 9.6	> 150	18.7	74.1	[2H]C([2H])(Nc1nonc1/C(=N\c1ccc(F)c(Br)c1)NO)C([2H])([2H])NS(N)(=O)=O [Compound 47, 4-({2-[(sulfamoyl)amino]-1,1,2,2-d4-ethyl}amino)-N-(3-bromo-4-fluorophenyl)-N′-hydroxy-1,2,5-oxadiazole-3-carboximidamide]
< 9.6	> 150	19.6	70.6	[2H]c1cc(F)c(Br)c([2H])c1/N=C(/NO)c1nonc1NCCNS(N)(=O)=O [Compound 22]
< 9.6	> 150	21	66.1	[2H]C([2H])(CNc1nonc1/C(=N\c1ccc(F)c(Br)c1)NO)NS(N)(=O)=O [Compound 41, 4-({2-[(sulfamoyl)amino]-2,2-d2-ethyl}amino)-N-(3-bromo-4-fluorophenyl)-N′-hydroxy-1,2,5-oxadiazole-3-carboximidamide]
9.6	144	20.1	68.9	NS(=O)(=O)NCCNc1nonc1C(=NO)Nc1ccc(F)c(Br)c1 [Epacadostat, reference compound]
< 9.6	> 150	18.9	73.3	[2H]C([2H])(CNS(N)(=O)=O)Nc1nonc1/C(=N\c1ccc(F)c(Br)c1)NO [Compound 11]
< 9.6	> 150	17.5	79.1	[2H]c1c([2H])c(/N=C(/NO)c2nonc2NCCNS(N)(=O)=O)c([2H])c(Br)c1F [Compound 66]
< 9.6	> 150	21.3	65	[2H]c1cc(/N=C(/NO)c2nonc2NCCNS(N)(=O)=O)cc(Br)c1F [Compound 32, 4-({2-[(sulfamoyl)amino]ethyl}amino)-N-(3-bromo-4-fluoro-5-d-phenyl)-N′-hydroxy-1,2,5-oxadiazole-3-carboximidamide]

The remaining lines, values behind:

Structure (SMILES)	microsomal CLint at 1 μM [1] [µL/min/mg]	half-life at 1 μM [1] [min]	microsomal CLint at 1 μM [2] [µL/min/mg]	half-life at 1 μM [2] [min]
[2H]c1c([2H])c(/N=C(/NO)c2nonc2NCC([2H])([2H])NS(N)(=O)=O)c([2H])c(Br)c1F [Compound 76, 4-({2-[(sulfamoyl)amino]-1,1-d2-ethyl}amino)-N-(2,5,6-d3-3-bromo-4-fluoro-phenyl)-N′-hydroxy-1,2,5-oxadiazole-3-carboximidamide]	< 9.6	> 150	22.6	61.4
[2H]c1cc(F)c(Br)c([2H])c1/N=C(/NO)c1nonc1NC([2H])([2H])CNS(N)(=O)=O [Compound 81, 4-({2-[(sulfamoyl)amino]-1,1-d2-ethyl}amino)-N-(2,6-d2-3-bromo-4-fluoro-phenyl)-N′-hydroxy-1,2,5-oxadiazole-3-carboximidamide]	< 9.6	> 150	18.5	75.1
[2H]c1c([2H])c(/N=C(/NO)c2nonc2NC([2H])([2H])C([2H])([2H])NS(N)(=O)=O)c([2H])c(Br)c1F [Compound 71, 4-({2-[(sulfamoyl)amino]-1,1,2,2-d4-ethyl}amino)-N-(2,5,6-d3-3-bromo-4-fluoro-phenyl)-N′-hydroxy-1,2,5-oxadiazole-3-carboximidamide]	< 9.6	> 150	20.5	67.7
[2H]c1cc(F)c(Br)c([2H])c1/N=C(/NO)c1nonc1NC([2H])([2H])C([2H])([2H])NS(N)(=O)=O [Compound 57, 4-({2-[(sulfamoyl)amino]-1,1,2,2-d4-ethyl}amino)-N-(2,6-d2-3-bromo-4-fluoro-phenyl)-N′-hydroxy-1,2,5-oxadiazole-3-carboximidamide]	< 9.6	> 150		
[2H]c1cc(/N=C(/NO)c2nonc2NC([2H])([2H])C([2H])([2H])NS(N)(=O)=O)cc(Br)c1F [Compound 52]	< 9.6	> 150	19.2	72.2
